Source: patent US10596169B2, “Cancer treatment with combination of plinabulin and taxane” (BeyondSpring Inc., priority 2013, dated 2020)

Key:
[1] = tested on: MV522 human non-small cell lung tumor xenograph model; test: Example 1: MV522 xenograft, NPI-2358 single agent and with docetaxel (TGI/TGD); assay type: in vivo, athymic nu/nu mice
Experimental: In vivo evaluation of plinabulin (NPI-2358) as a single agent and in combination with docetaxel in the MV522 human non-small cell lung tumor xenograph model in athymic nu/nu mice
The objective of the example was to determine potential additive or synergistic effects of plinabulin in combination with docetaxel in the MV522 model by exploring the scheduling of the drug combination explored by administering one of the agents 2 hours after the first drug was given. Significant endpoints for this experiment included mean tumor growth inhibition (TGI) or regression, tumor growth delay (TGD) in large tumor, weight loss, and mortality.
(§1) Female nude mice (Hsd: Athymic Nude-Foxn1^nu) between 5 and 6 weeks of age weighing approximately 20 grams were obtained from Harlan, Inc. (Madison, Wis.). MV522 is a conventional human NSC metastatic lung tumor cell line (U.S. Pat. No. 7,700,615 or 7,629,380). Animals were injected subcutaneously (SC) with approximately 1×10^7 MV522 cells harvested from tissue culture. When tumors grew to approximately 105 cubic millimeters (mm^3) in size (3 days following implantation), animals were pair-matched by tumor size into treatment and control groups; each treatment group contained eight mice. Animals were ear-tagged and followed individually throughout the experiment.
(§2) Initial doses were administered on Day 1 following pair-matching. The experiment was carried out as a tumor growth inhibition (TGI) and tumor growth delay (TGD) study. Group 1 endpoint was when tumor volume reached 1.2 cm^3 (TGI) and the treated groups endpoint was when each individual animal's tumor volume reached 1.5 cm^3 (TGD). […] To serve as negative controls, NPI-2358 vehicle and docetaxel vehicle were injected IP on a 2×WKLY×3 schedule and IV on a Q2D×3 schedule, respectively. Docetaxel was administered by intravenous (IV) injection via tail vein at 15 mg/kg once every other day for three treatments (Q2D×3) or at 25 mg/kg on a Q7D×3 schedule (every 7 day for three treatment). Docetaxel and docetaxel vehicle were administered two hours prior to NPI-2358 vehicle and NPI-2358, respectively, in Groups 7-9 and 12-14. For Groups 10, 11, 15, and 16, NPI-2358 was given two hours prior to docetaxel.
Mice were weighed and caliper tumor measurements taken. Tumor growth inhibition (TGI) values were calculated for each group containing treated animals using the formula below: […]
Animals experiencing complete tumor responses or animals experiencing technical or drug-related deaths were censored from final TGI calculations; however animals experiencing partial tumor responses were included in the final TGI calculations. […] TGI values for each treatment group are reported at study completion; these calculations are based on the final study day.
This arm of the study was ended on Day 74 at the sponsor's request. […] Upon TGD study completion, a Median Day of Sacrifice (MDS) was calculated for the control (C) and each treatment (T) group and used to determine tumor growth delay (T-C) using the following equations: MDS=Median [ΣIDS] T−C=MDSTreated−MDSControl
Where IDS (Individual Day of Sacrifice) is the day when each animal reached its tumor volume endpoint (1.5 cm^3); only animals reaching this endpoint were included in TGD calculations. Gross or net log10 cell kill for each treatment group was determined using the following equations: […]

[2] = Experimental: as §1, §2
Individual and group mean weights ±SD and percent weight change were recorded twice weekly until study completion beginning Day 1. Group weights on Day 42 and weight nadir values are reported.
Animals were observed twice weekly for general moribundity and daily for mortality.

[3] = G5: NPI-2358 3.75 mg/kg IP 2xWKLYx3

Question: For `CC(C)(C)c1[nH]cnc1/C=c1\[nH]c(=O)/c(=C/c2ccccc2)[nH]c1=O` [NPI-2358], which “#CR (Day 25)” value [1, 3] is on record?
Answer: The value was 0/0.

Question: And the “#CR (TGD study)” value [1, 3]?
Answer: Its value is 0/0.

Question: And the “#LTS (long-term survivors)” value [1, 3]?
Answer: The value was 0.

Question: What about the “#PR (Day 25)” value [1, 3] of the same compound?
Answer: Its value is 0/0.

Question: And the “#PR (TGD study)” value [1, 3]?
Answer: Its value is 0/0.

Question: What about the “% TGI” value [1, 3] of the same compound?
Answer: The value was 2%.

Question: What about the “Final tumor volume (Day 25) mean ± SEM” value [1, 3] of the same compound?
Answer: The value was 1347 ± 82 mm^3.

Question: And the Log10 cell kill [1, 3]?
Answer: The Log10 cell kill was 0.0.

Question: What about the “T-C (tumor growth delay)” value [1, 3] of the same compound?
Answer: The value was 0.

Question: And the “MDS day ± SD” value ([1]; G5: NPI-2358 3.75 mg/kg IP 2xWKLYx3, endpoint 1.5 cm^3)?
Answer: Its value is 29 ± 2 days.

Question: And the “Tumor volume / tumor burden compared to vehicle control” value ([1]; single agent, Example 1)?
Answer: Its value is “slight decrease in tumor volume”.

Question: What about the “Final weight (Day 25) % change” value [2, 3] of the same compound?
Answer: The value was “+15%”.

Question: What about the “Final weight (Day 25) mean ± SD” value [2, 3] of the same compound?
Answer: The value was 23 ± 1 g.

Question: And the “Weight nadir % change” value [2, 3]?
Answer: The value was 0%.

Question: What about the Weight nadir day [2, 3] of the same compound?
Answer: Its Weight nadir day is 1.

Question: And the Animal weight loss ([2]; single agent groups, Example 1, given doses and schedule)?
Answer: Its Animal weight loss is “No significant animal weight loss”.
